Experimental data from patent publication US10786479B2, “Methods for inhibiting conversion of carnitine to trimethylamine (TMA)” (The Procter & Gamble Company, priority 2015, dated 2020).

Molecular target: T1, Ec YeaWX lysate (Escherichia coli YeaW/YeaX) (Escherichia coli, UniProt P0ABR7)
T1 construct: create a 5′ NdeI restriction site including the ATG start codon of yeaW; create a PstI restriction site just 3′ of the yeaX TAG stop codon; made in house; host or cells: E. coli BL21 (DE3), pET30a, IPTG induction; unpurified French-press lysate supernatant
T1 sequence (P0ABR7 whole entry): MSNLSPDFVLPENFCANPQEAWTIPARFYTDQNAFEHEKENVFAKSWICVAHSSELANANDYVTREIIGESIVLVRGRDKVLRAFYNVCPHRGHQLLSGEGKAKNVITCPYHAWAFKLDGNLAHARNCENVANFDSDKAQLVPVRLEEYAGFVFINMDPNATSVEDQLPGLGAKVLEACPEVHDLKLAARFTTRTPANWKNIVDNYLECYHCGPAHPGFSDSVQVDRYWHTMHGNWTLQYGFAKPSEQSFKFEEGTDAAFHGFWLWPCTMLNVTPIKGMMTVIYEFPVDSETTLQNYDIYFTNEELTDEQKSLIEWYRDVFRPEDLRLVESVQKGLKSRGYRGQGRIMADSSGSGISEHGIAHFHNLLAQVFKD
Test: Inhibition of d9-TMA formation from d9-carnitine in Ec YeaWX lysate (LC-MS/MS)
Format: biochemical
Conditions: Ec YeaWX lysate 2.0 mg/mL protein, 250 μM NADPH, 50 μM d9-carnitine chloride, 37° C. for two hours; read-out: TMA Inhibition (IC50, mol/L)
From the text: This example provides an exemplary assay for identifying and characterizing compounds that inhibit the formation of TMA from carnitine.
Escherichia coli BL21*DE3::pET30a-Ec yeaWX #1 (Ec YeaWX) strain was generated as described below. The contiguous Escherichia coli coding sequence yeaW (equivalent to uniprot ID P0ABR7.1 (YeaW) (SEQ ID NO: 2)) and yeaX (equivalent to uniprot ID P76254.1 (YeaX) (SEQ ID NO: 3)) were PCR amplified from Escherichia coli strain K-12 substr. BW25113 genomic DNA. PCR primers (YeaW_Nde_I_fwd2—SEQ ID NO: 4; YeaX_rev2—SEQ ID NO: 5) were designed to create a 5′ NdeI restriction site including the ATG start codon of yeaW and create a PstI restriction site just 3′ of the yeaX TAG stop codon.
The amplicon was restricted and cloned into the NdeI and PstI sites of the plasmid pET30a downstream of the inducible T7 promoter. A blast search of the resulting cloned amplicon DNA sequence (SEQ ID NO: 1) corresponded to nucleotide range 1884665 to 1886810 of Escherichia coli str. K-12 substr. MG1655 (NCBI Accession # NC_000913). The construct was transformed and grown in E. coli BL21 (DE3) and the recombinant yeaWX overexpressed by addition of isopropyl β-D-1-thiogalactopyranoside (IPTG).
The bacteria were grown aerobically in 50 mL LB broth (Difco #244620; 10 g/L Tryptone, 5 g/L yeast extract, 10 g/L NaCl, 50 μg/mL kanamycin), in a 500 mL Erlenmeyer flask. The cultures were inoculated from glycerol stock of BL21*DE3::pET30a-Ec yeaWX #1 strain. Strains were cultured all day at 37° C. with 250 rpm shaking. Two 300 mL Minimal M9 Medium (6 g/L Na2HPO4, 3 g/L KH2PO4, 0.5 g/L NaCl, 1 g/L NH4Cl, 0.1 mM CaCl2, 1 mM MgSO4, 0.2% Dextrose, 1 mg/L Thiamine, 50 μg/mL kanamycin), in 1 L Erlenmeyer flasks, were inoculated with 5 mL of the LB broth day culture and cultured overnight at 37° C. with 250 rpm shaking. The overnight cultures were used to inoculate twelve 1 L cultures of Minimal M9 media in 2.8 L fluted Erlenmeyer flasks to an OD 600 nm of 0.05 (typically approximately 28 mLs), which were grown at 37° C. with 250 rpm shaking until an OD600 of approximately 0.4 was reached. Expression of YeaWX was induced with 1 mM IPTG and the induced cultures were further grown overnight at 37° C. with 250 rpm shaking. The biomass was pelleted by centrifugation at 6000×g for 12 minutes at 4° C. The cell pellet was suspended in 240 mL of ice-cold 1× Phosphate Buffered Saline (Ca^2+ and Mg^2+ free). Ninety micrograms of Lysozyme (Sigma # L6876 Lot # SLBG8654V; Sigma-Aldrich Corp., St. Louis, Mo.) was added and incubated with 320 rpm shaking for 30 minutes at 4° C. Lysis was achieved via French press with a 4° C. prechilled 1″ diameter chamber at 1000 psi (high ratio; internal PSI equivalent ˜16000). The lysate was centrifuged at 6,000×g for 12 minutes at 4° C. to pellet extra debris. Glycerol was added to the centrifuged lysate supernatant at a final concentration of 15% A protein concentration of the centrifuged lysate supernatant was determined by a BCA Protein Assay Kit (Pierce #23225), typically in the 2.5 to 4.5 mg/ml range. The centrifuged Ec YeaWX lysate supernatant was aliquoted into 20 mL volumes and stored frozen at −80° C.
Ec YeaWX lysate was diluted to 2.0 mg/mL protein with 1× Dulbecco's phosphate buffered saline (DPBS) plus 15% glycerol. Nicotinamide adenine dinucleotide phosphate (NADPH) was added to 250 μM. One hundred and fifty microliters of Ec YeaWX lysate was dispensed into a deep-well plate (polypropylene, 2 mL volume, Corning Axygen catalogue # P-DW-20-C). […] The plates were agitated on a plate shaker for 1 minute. d9-carnitine chloride (1.5 μL of 5 mM) was added to all wells to reach a final d9-carnitine chloride concentration of 50 μM.
The plates were again agitated on a plate shaker for 1 minute and incubated at 37° C. for two hours. After incubation, 1.5 μL of formic acid was added to each well (final concentration=1% formic acid). The plates were agitated on a plate shaker for 1 minute and placed on ice. […]

Row | Compound | IC50
1 | S=C=NCC1CCCCC1 [Compound 8, Cyclohexylmethyl isothiocyanate] | 38.1 µM
2 | CCCCCC12CCC(C(=O)Oc3ccc(N=C=S)cc3)(CC1)CC2 [Compound 37, 4-Isothiocyanatophenyl 4-pentylbicyclo[2.2.2] octane-1-carboxylate] | > 1000 µM
3 | CCCCN=C=S [Compound 13, Butyl isothiocyanate] | 63.6 µM
4 | CCC(C)N=C=S (stereo not drawn) [Compound 10, sec-butyl isothiocyanate] | 146 µM
5 | S=C=NCc1ccccc1 [Compound 5, Benzyl isothiocyanate] | 8.37 µM
6 | CC(C)(C)OC(=O)NCCCCN=C=S [Compound 22, N-Boc-4-isothiocyanatobutylamine] | 17.7 µM
7 | COc1ccccc1N=C=S [Compound 32, 2-Methoxyphenyl isothiocyanate] | 33.3 µM
8 | COc1ccc(N=C=S)cc1 [Compound 28, 4-Methoxyphenyl isothiocyanate] | 5.76 µM
9 | Cc1cccc(N=C=S)c1 [Compound 3, m-Tolyl isothiocyanate] | 14.5 µM
10 | COc1ccc(C)cc1N=C=S [Compound 1, 2-Methoxy-5-methylphenyl isothiocyanate] | 61.6 µM
11 | CC(C)(C)OC(=O)Nc1ccc(N=C=S)cc1 [Compound 23, N-Boc-4-isothiocyanatoaniline] | 15.7 µM
12 | CC(C)CCN=C=S [Compound 16, 1-isothiocyanato-3-methylbutane] | 75.9 µM
13 | CC(C)N=C=S [Compound 15, Isopropyl isothiocyanate] | 200 µM
14 | COc1cccc(N=C=S)c1 [Compound 34, 3-Methoxyphenyl isothiocyanate] | 9.59 µM
15 | S=C=Nc1ccccc1 [Compound 18, Phenyl isothiocyanate] | 6.45 µM
16 | CC(=O)O[C@H]1[C@H](OC(C)=O)[C@@H](N=C=S)OC[C@H]1OC(C)=O [Compound 39, 2,3,4-Tri-O-acetyl-α-D-arabinopyranosyl isothiocyanate] | 50.1 µM
17 | CCN(CC)CCN=C=S [Compound 40, Ethanamine, N,N-diethyl-2-isothiocyanato] | 320 µM
18 | CCOC(=O)CN=C=S [Compound 36, Ethyl isothiocyanatoacetate] | 30 µM
19 | C[C@H](N=C=S)c1ccccc1 [Compound 26, (S)-(+)-alpha-Methylbenzyl isothiocyanate] | 7.34 µM
20 | CC(C)CN=C=S [Compound 12, Isobutyl isothiocyanate] | 74.5 µM
21 | S=C=Nc1ccc(Br)cc1 [Compound 20, 4-Bromophenyl isothiocyanate] | 4.72 µM

Row | Compound | IC50
22 | CC(C)(C)N=C=S [Compound 2, tert-Butyl isothiocyanate] | > 1000 µM
23 | CCCCCCN=C=S [Compound 17, Hexyl isothiocyanate] | 43.5 µM
24 | O=C(N=C=S)c1ccccc1 [Compound 21, Benzoyl isothiocyanate] | 138 µM
25 | S=C=Nc1cccc2ccccc12 [Compound 19, 1-Naphthyl isothiocyanate] | 12.5 µM
26 | CCN(CC)CCCN=C=S [Compound 7, 3-(Diethylamino)propyl isothiocyanate] | 146 µM
27 | S=C=NC(c1ccccc1)c1ccccc1 [Compound 38, Benzhydryl isothiocyanate] | 3.05 µM
28 | Ethyl isothiocyanate [Compound 11] | 82.2 µM
29 | S=C=NCCN1CCCCC1 [Compound 35, 2-Piperidinoethyl isothiocyanate] | 104 µM
30 | S=C=NCCc1ccc(Cl)cc1 [Compound 9, 2-(4-Chlorophenethyl) isothiocyanate] | 12.7 µM
31 | CSc1ccc(N=C=S)cc1 [Compound 4, 4-(Methylthio)phenyl isothiocyanate] | 10.8 µM
32 | S=C=Nc1ccc(Cl)cc1 [Compound 27, 4-Chlorophenyl isothiocyanate] | 4.57 µM
33 | COc1ccc(OC)c(N=C=S)c1 [Compound 33, 2,5-Dimethoxyphenyl isothiocyanate] | 47.7 µM
34 | CCc1ccc(N=C=S)cc1 [Compound 31, 4-Ethylphenyl isothiocyanate] | 17.3 µM
35 | S=C=N[C@@H]1C[C@H]2CC[C@@H]1C2 (relative stereo) [Compound 29, exo-2-Norbornyl-isothiocyanate] | 21.6 µM
36 | S=C=NC1CCCCC1 [Compound 30, Cyclohexyl isothiocyanate] | 38.8 µM
37 | S=C=NCCCN1CCOCC1 [Compound 24, 3-(4-Morpholino)propyl isothiocyanate] | 68.5 µM
38 | CN(C)CCCN=C=S [Compound 41, 3-isothiocyanato-N,N-dimethyl-1-Propanamine] | 320 µM
39 | S=C=NCCN1CCOCC1 [Compound 25, 2-(4-Morpholino)ethyl isothiocyanate] | 69 µM
40 | Methyl isothiocyanate [Compound 14] | 149 µM
41 | CN(C)CCN=C=S [Compound 42, 2-Isothiocyanato-N,N-dimethylethanamine] | 164 µM
42 | CCCCCN=C=S [Compound 6, 1-pentyl isothiocyanate] | 32.2 µM
